# Laboratory results published in PMC7017366, “Glucose Uptake Stimulatory and PTP1B Inhibitory Activities of Pimarane Diterpenes from Orthosiphon stamineus Benth” (Biomolecules, 2019).
# “Also recorded” adds a separate entry of the source.
# How the values were obtained:
# [1] = molecular target: T1, Protein tyrosine phosphatase 1B (human recombinant) (Homo sapiens, UniProt P18031); assay: Determination of the inhibition mode (Lineweaver–Burk and Dixon plots); type: biochemical; conditions: p-NPP substrate; for Inhibition Type: Lineweaver–Burk and Dixon plots; for Ki: Dixon plot
# T1 construct: purchased Biomol International LP, Plymouth Meeting, PA, USA
# T1 sequence (P18031 1-435): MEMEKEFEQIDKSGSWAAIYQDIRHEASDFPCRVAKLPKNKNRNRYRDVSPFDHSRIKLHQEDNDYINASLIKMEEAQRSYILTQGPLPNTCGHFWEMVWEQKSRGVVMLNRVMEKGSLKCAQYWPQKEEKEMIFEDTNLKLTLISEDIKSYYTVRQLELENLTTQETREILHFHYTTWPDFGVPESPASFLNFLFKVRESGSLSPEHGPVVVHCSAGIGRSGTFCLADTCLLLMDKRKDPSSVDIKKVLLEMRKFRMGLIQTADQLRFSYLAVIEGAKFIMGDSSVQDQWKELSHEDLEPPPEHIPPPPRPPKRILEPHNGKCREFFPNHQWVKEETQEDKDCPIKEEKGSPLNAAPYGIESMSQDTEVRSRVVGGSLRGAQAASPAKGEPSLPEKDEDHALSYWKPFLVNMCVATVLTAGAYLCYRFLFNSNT
# Excerpt: The Sigma plot program was used to analyze both the double reciprocal Lineweaver–Burk plot and the Dixon plot by plotting 1/v as a function of the inhibitor (I). […] Table 1 lists the Ki values for these active compounds.
# Victor3 V 1420 Multilabel Plate Counter at an excitation and emission wavelength of 485 nm and 535 nm, […]
# (§1) Protein tyrosine phosphatase 1B (human recombinant) was purchased from Biomol International LP, Plymouth Meeting, PA, USA, and the inhibitory activities of the tested samples were evaluated using the method as described in [31]. Briefly, 0.05−0.1 µg of PTP1B (BIOMOL International L.P., Plymouth Meeting, PA, USA) and 4 mM p-NPP in a buffer containing 1 mMdithiothreitol, 0.1 M NaCl, 1 mM EDTA, and 50 mM citrate (pH 6.0), with or without test compounds, were added as 100 µL of a final volume to each of the 96 wells. After the reaction mixture was incubated at 37 °C for 30 min, 10 M NaOH was added to quench the reaction. PTP1B enzyme activity was determined by the amount of produced p-nitrophenol at 405 nm. […]
# contain the PTP1B enzyme.
# Determination of the Inhibition Mode of Active Compounds
# The Lineweaver–Burk plot and Dixon plot experiments were carried out in the presence and absence of the inhibitors with various concentrations of p-NPP as the substrate. The inhibition modes of the tested compounds were assessed on the basis of their inhibitory effects on the Km ([…]) and Vmax (maximum reaction velocity) of the enzyme, which were determined by the Lineweaver–Burk plot experiment. The Lineweaver–Burk plot is the double reciprocal plot of the enzyme reaction velocity ( V) versus the substrate ( p-NPP) concentration (1/ V versus 1/( p-NPP)).
# (§2) Data are represented as means ± SD of at least three independent experiments performed in triplicated assays and determined by regression analysis. For statistical analysis of the data for single comparison, the significance between means was determined by the Student’s t test. Sigma Plot program version 11.0 was used for analysis of the kinetic data.
# 3T3-L1 adipocytes = assay: Adipocyte-based measurement of 2-NBDG uptake; type: cell-based
# Excerpt: DM is a metabolic ailment that is categorized by glucose intolerance and deviations of lipid and protein metabolism processes. Previously, 2-NBDG was used as a potential agent to evaluate the action of compounds as insulin mimickers. In our experiment, we examined the activity of the pimarane diterpenes 1–7 on 2-NBDG uptake in the 3T3-L1 adipocytes model. […] Among them, compounds 1, 3, 5, 6, and 7 theoretically stimulated glucose uptake by 1.45–1.51-, 1.56–1.68-, 1.55–1.66-, 1.72–1.83-, and 1.67–1.75-fold of inductions, respectively (Figure 2).
# Figure 2 The action of pimarane diterpenes (1–7) on 2-NBDG uptake. Compounds concentrations were 5 and 10 µM; Insulin (100 nM); Control (DMSO). The glucose uptake effect was expressed as the mean ± standard deviation (SD) of three replicates. Statistical significance was accessed by Duncan’s multiple range tests (* p < 0.01; ** p < 0.05). […]
# Cell Culture and Induction of 3T3-L1 Adipocytes
# 3T3-L1 cells were purchased from American Type Culture Collection (ATCC, Manassas, VA, USA) and grown in DMEM with 10% FCS. To induce differentiation, 3T3-L1 pre-adipocytes were cultured until confluence was reached (0 day), and the culture medium was replaced with a fresh induction medium containing 5 µg/mL insulin, 0.5 mM 3-isobutyl-1-methylxanthine (IBMX), and 1 µM dexamethasone (DEX) […]
# in DMEM with 10% FBS for 2 days. […]
# Adipocyte-Based Measurement of 2-NBDG Uptake
# 3T3-L1 adipocytes grown in black 96-well plates were incubated with each sample for 24 h at 37 °C in a 5% CO2 atmosphere. Subsequently, 250 µM 2-NBDG (dissolved in PBS with 1% BSA) was added to the cells and incubated for a further 30 min. After incubation, cells were washed two times with PBS to remove excess fluorescence in the wells. Then, fluorescence retained by the cells was measured using a PerkinElmer […]
# PTP1B = test system: PTP1B; design: method as in PMID 23604820; conditions: very low IC50 values; cited from earlier work
# [2] = molecular target: T1, Protein tyrosine phosphatase 1B (human recombinant); assay: PTP1B inhibition assay (p-NPP substrate); type: biochemical; conditions: read-out: IC50 PTP1B inhibitory activity
# Excerpt: PTP1B dephosphorylates IR and IRS in the insulin signaling pathway as a negative regulator. In the leptin signaling pathway, PTP1B presented the same manner of tyrosine Janus kinase 2. Thus, inhibition of PTP1B activity might improve the IR and IRS, leading to the enhancement of glucose uptake in adipocyte cells. […]
# as §1
# contain the PTP1B enzyme. […]
# as §2
Compound,Inhibition Type [1],PTP1B inhibition (in words) (PTP1B),"2-NBDG uptake, fold of induction (3T3-L1 adipocytes; range over 5 and 10 µM)",Ki [1],IC50 [2],other results
"C[C@H]1[C@H](C)CC[C@]2(C(=O)O)CC[C@]3(C)C(=CC[C@@H]4[C@@]5(C)CC[C@H](O)C(C)(C)[C@@H]5CC[C@]43C)[C@H]12 [Ursolic acid, reference compound]",mixed-competitive inhibitor,–,–,–,–,–
insulin,–,–,–,–,–,"2-NBDG uptake, fold of induction (3T3-L1 adipocytes; positive control at 100 nM): 1.55 ± 0.07 fold"
C=CC1(C)CCC2C(O)(CCC3C(C)(CO)CCCC32C)C1 (stereo not drawn) [8α-hydroxy-ent-pimara-15-en-19-ol],–,significantly inhibited,–,–,–,–
"C=C[C@]1(C)C=C2C(CC1)[C@]1(C)CCC[C@@](C)(C(=O)O)C1C[C@@H]2O (stereo partly drawn) [7β-hydroxy-ent-pimara-8(14),15-diene-19-oic acid]",–,significantly inhibited,–,–,–,–
"C=C[C@]1(C)C=C2C(=O)C[C@H]3[C@@](C)(CCC[C@@]3(C)C(=O)O)[C@@H]2CC1 [7-oxo-ent-pimara-8(14),15-diene-19-oic acid]",–,significantly inhibited,–,–,–,–
"C=CC1(C)CC(=O)C2C(O)(C1=O)C(O)CC1C(C)(C)C(OC(=O)c3ccccc3)C(OC(C)=O)C(OC(=O)c3ccccc3)C12C (stereo not drawn) [Compound 7, orthosiphol N]",uncompetitive inhibition,–,1.67–1.75 fold,5.5 ± 0.1 µM,1.6 ± 0.17 µM,"2-NBDG uptake, fold of induction (3T3-L1 adipocytes; 5 μM): 1.67 ± 0.08 fold"
"C=C[C@]1(C)C=C2CCC3[C@@](C)(CCC[C@@]3(C)C(=O)O)C2CC1 (stereo partly drawn) [ent-pimara-8(14),15-diene-19-oic acid]",–,significantly inhibited,–,–,–,–
C=C1C[C@@]23CC[C@H]4[C@@](C)(CCC[C@@]4(C)C(=O)O)[C@@H]2CC[C@@H]1C3 [ent-kaur-16-en-19-oic-acid],–,significantly inhibited,–,–,–,–
"C=CC1(C)CC(OC(=O)c2ccccc2)C2C(O)(C1=O)C(O)CC1C(C)(C)C(OC(C)=O)C(OC(C)=O)C(OC(=O)c3ccccc3)C12CO (stereo not drawn) [Compound 1, siphonol B]",mixed-competitive inhibitor; also recorded: mixed-competitive inhibition,–,1.45–1.51 fold,52.4 ± 0.9 µM,8.18 ± 0.41 µM,–
"C=CC1(C)CC(OC(=O)c2ccccc2)C2C(O)(C1=O)C(O)CC1C(C)(C)C(OC(C)=O)C(OC(C)=O)C(OC(=O)c3ccccc3)C12COC(C)=O (stereo not drawn) [Compound 2, siphonol D]",–,–,1.24–1.33 fold,–,24.7 ± 1.12 µM,–
"C=C[C@@]1(C)C[C@@H](OC(=O)c2ccccc2)[C@H]2[C@](O)(C1=O)[C@H](O)C[C@H]1C(C)(C)[C@H](OC(C)=O)[C@H](OC(C)=O)[C@H](OC(=O)c3ccccc3)[C@@]12C [Compound 4, orthosiphol F]",–,–,1.28–1.35 fold,–,27.6 ± 2.99 µM,–
"C=C[C@@]1(C)CC(=O)[C@H]2[C@](O)(C1=O)[C@H](O)C[C@H]1C(C)(C)[C@H](OC(C)=O)[C@H](OC(C)=O)[C@H](OC(=O)c3ccccc3)[C@@]12C [Compound 6, orthosiphol I]",competitive inhibition,–,1.72–1.83 fold,1.3 ± 0.6 µM,0.33 ± 0.07 µM,"2-NBDG uptake, fold of induction (3T3-L1 adipocytes; 5 μM): 1.72 ± 0.11 fold"
"C=CC1(C)C=C2CCC3C(C)(CO)CCCC3(C)C2CC1 (stereo not drawn) [ent-pimara-8(14),15-diene-19-ol]",–,significantly inhibited,–,–,–,–
"C=C[C@@]1(C)C[C@@H](O)[C@H]2[C@](O)(C1=O)[C@H](O)C[C@H]1C(C)(C)[C@H](OC(C)=O)[C@H](OC(C)=O)[C@H](OC(=O)c3ccccc3)[C@@]12C [Compound 5, orthosiphol G]",non-competitive inhibition,–,1.55–1.66 fold,23.9 ± 1.2 µM,3.82 ± 0.2 µM,"2-NBDG uptake, fold of induction (3T3-L1 adipocytes; 5 μM): 1.55 ± 0.02 fold"
"C=C[C@@]1(C)C[C@@H](OC(=O)c2ccccc2)[C@H]2[C@](O)(C1=O)[C@H](OC(C)=O)C[C@H]1C(C)(C)[C@H](OC(C)=O)[C@H](O)[C@H](OC(=O)c3ccccc3)[C@@]12C [Compound 3, orthosiphol B]",non-competitive inhibition,–,1.56–1.68 fold,75.6 ± 1.7 µM,9.84 ± 0.33 µM,"2-NBDG uptake, fold of induction (3T3-L1 adipocytes; 5 μM): 1.56 ± 0.09 fold"
